Data published in ChEMBL document CHEMBL3997780, “Facile synthesis and antiproliferative activity of 7H-benzo[7,8]chromeno[2,3-d]pyrimidin-8-amines” (Eur J Med Chem, 2017).
Calls of active or inactive are those of the source. No cut-off for these calls is given here.

Key:
[1] = test system: A549; experiment: Cytotoxicity against human A549 cells assessed as decrease in cell viability by MTT assay; format: functional, cell-based
[2] = test system: HeLa; experiment: Cytotoxicity against human HeLa cells assessed as decrease in cell viability by MTT assay; format: functional, cell-based
[3] = test system: MOLT-4; experiment: Cytotoxicity against human MOLT4 cells assessed as decrease in cell viability by MTT assay; format: functional, cell-based
[4] = test system: A549; experiment: Induction of apoptosis in human A549 cells assessed as early apoptotic cells at IC50 after 24 hrs by annexin V-FITC/propidium iodide staining-based flow cytometric method (reference value: 0.93%); format: functional
[5] = test system: A549; experiment: Induction of apoptosis in human A549 cells assessed as late apoptotic cells at IC50 after 24 hrs by annexin V-FITC/propidium iodide staining-based flow cytometric method (reference value: 0.06%); format: functional
[6] = test system: A549; experiment: Induction of apoptosis in human A549 cells assessed as viable cells at IC50 after 24 hrs by annexin V-FITC/propidium iodide staining-based flow cytometric method (reference value: 99.01%); format: functional
[7] = test system: A549; experiment: Induction of apoptosis in human A549 cells assessed as necrotic cells at IC50 after 24 hrs by annexin V-FITC/propidium iodide staining-based flow cytometric method relative to control; format: functional
[8] = test system: MOLT-4; experiment: Induction of apoptosis in human MOLT4 cells assessed as change in cell morphology at IC50 after 24 hrs by acridine orange/ethidium bromide staining-based fluorescence microscopic method; format: functional
[9] = test system: A549; experiment: Induction of apoptosis in human A549 cells assessed as change in cell morphology at IC50 after 24 hrs by acridine orange/ethidium bromide staining-based fluorescence microscopic method; format: functional
[10] = test system: MOLT-4; experiment: Induction of apoptosis in human MOLT4 cells assessed as viable cells at IC50 after 24 hrs by annexin V-FITC/propidium iodide staining-based flow cytometric method (reference value: 97.78%); format: functional
[11] = test system: MOLT-4; experiment: Induction of apoptosis in human MOLT4 cells assessed as early apoptotic cells at IC50 after 24 hrs by annexin V-FITC/propidium iodide staining-based flow cytometric method (reference value: 2.18%); format: functional
[12] = test system: MOLT-4; experiment: Induction of apoptosis in human MOLT4 cells assessed as necrotic cells at IC50 after 24 hrs by annexin V-FITC/propidium iodide staining-based flow cytometric method (reference value: 0.03%); format: functional
[13] = test system: MOLT-4; experiment: Induction of apoptosis in human MOLT4 cells assessed as late apoptotic cells at IC50 after 24 hrs by annexin V-FITC/propidium iodide staining-based flow cytometric method (reference value: 0.02%); format: functional

c1ccc(Nc2ncnc3c2C(c2ccccc2)c2ccc4ccccc4c2O3)cc1 (configuration not stated)
IC50 [1]: 12.5 µM
IC50 [2]: 6.4 µM
IC50 [3]: 6.6 µM

Clc1ccc(Nc2ncnc3c2C(c2ccccc2)c2ccc4ccccc4c2O3)cc1 (configuration not stated)
IC50 [1]: 13.7 µM
IC50 [2]: 19.9 µM
IC50 [3]: 16.4 µM

Fc1ccccc1Nc1ncnc2c1C(c1ccccc1)c1ccc3ccccc3c1O2 (configuration not stated)
Activity [4]: 34.92%
Activity [5]: 2.72%
Activity [6]: 62.07%
IC50 [1]: 5.4 µM
Activity [7]: 0.29%
Activity [8]: Active
Activity [9]: Active
IC50 [2]: 10.3 µM
IC50 [3]: 12.8 µM

CCc1ccc(Nc2ncnc3c2C(c2ccccc2)c2ccc4ccccc4c2O3)cc1 (configuration not stated)
IC50 [1]: 17.4 µM
IC50 [2]: 14.5 µM
IC50 [3]: 17.6 µM

COc1ccc(Nc2ncnc3c2C(c2ccccc2)c2ccc4ccccc4c2O3)c(OC)c1 (configuration not stated)
IC50 [1]: 10.9 µM
IC50 [2]: 15.9 µM
IC50 [3]: 6.5 µM

COc1cc(C2c3ccc4ccccc4c3Oc3ncnc(NCc4ccccc4)c32)cc(OC)c1OC (configuration not stated)
IC50 [1]: 26.5 µM
IC50 [2]: 44.6 µM
IC50 [3]: 10.4 µM

c1ccc(CCNc2ncnc3c2C(c2ccccc2)c2ccc4ccccc4c2O3)cc1 (configuration not stated)
IC50 [1]: 68.5 µM
IC50 [2]: 50.2 µM
IC50 [3]: 16.9 µM

Brc1ccc(Nc2ncnc3c2C(c2ccccc2)c2ccc4ccccc4c2O3)cc1 (configuration not stated)
IC50 [1]: > 100 µM
IC50 [2]: 31.6 µM
IC50 [3]: 29.4 µM

Clc1ccccc1CNc1ncnc2c1C(c1ccccc1)c1ccc3ccccc3c1O2 (configuration not stated)
IC50 [1]: 9.6 µM
IC50 [2]: 15.4 µM
IC50 [3]: 11.7 µM

COc1ccc(OC)c(C2c3ccc4ccccc4c3Oc3ncnc(Nc4ccccc4F)c32)c1 (configuration not stated)
Activity [10]: 8.18%
Activity [11]: 47.03%
Activity [12]: 1.18%
Activity [13]: 43.61%
IC50 [1]: 6.3 µM
Activity [8]: Active
Activity [9]: Active
IC50 [2]: 6.9 µM
IC50 [3]: 5.2 µM

COc1ccc(OC)c(C2c3ccc4ccccc4c3Oc3ncnc(Nc4ccc(Cl)cc4)c32)c1 (configuration not stated)
IC50 [1]: 14.8 µM
IC50 [2]: 15.9 µM
IC50 [3]: 7.4 µM

COc1ccc(Nc2ncnc3c2C(c2cc(OC)ccc2OC)c2ccc4ccccc4c2O3)cc1 (configuration not stated)
IC50 [1]: 7.2 µM
IC50 [2]: 10.6 µM
IC50 [3]: 6.9 µM

COc1ccc(OC)c(C2c3ccc4ccccc4c3Oc3ncnc(Nc4ccc(Br)cc4)c32)c1 (configuration not stated)
IC50 [1]: 26.8 µM
IC50 [2]: 16.7 µM
IC50 [3]: 20.4 µM

COc1cc(C2c3ccc4ccccc4c3Oc3ncnc(Nc4ccccc4)c32)cc(OC)c1OC (configuration not stated)
IC50 [1]: 18.6 µM
IC50 [2]: 20.7 µM
IC50 [3]: 9.8 µM

COc1ccc(CCNc2ncnc3c2C(c2ccccc2)c2ccc4ccccc4c2O3)c(OC)c1 (configuration not stated)
IC50 [1]: 18.9 µM
IC50 [2]: 43.5 µM
IC50 [3]: 14.5 µM

c1ccc(CNc2ncnc3c2C(c2ccccc2)c2ccc4ccccc4c2O3)cc1 (configuration not stated)
IC50 [1]: 10.9 µM
IC50 [2]: 5.9 µM
IC50 [3]: 12.7 µM

COc1cc(C2c3ccc4ccccc4c3Oc3ncnc(NCc4ccccc4Cl)c32)cc(OC)c1OC (configuration not stated)
IC50 [1]: 22.2 µM
IC50 [2]: 33.2 µM
IC50 [3]: 14.5 µM

Cc1ccc(Nc2ncnc3c2C(c2ccccc2)c2ccc4ccccc4c2O3)c(C)c1 (configuration not stated)
IC50 [1]: 11.2 µM
IC50 [2]: 14.6 µM
IC50 [3]: 8.9 µM

COc1ccc(OC)c(C2c3ccc4ccccc4c3Oc3ncnc(Nc4ccc(F)cc4)c32)c1 (configuration not stated)
IC50 [1]: 8.4 µM
IC50 [2]: 10.5 µM
IC50 [3]: 6.8 µM

COc1ccc(Nc2ncnc3c2C(c2cc(OC)c(OC)c(OC)c2)c2ccc4ccccc4c2O3)cc1 (configuration not stated)
IC50 [1]: 46.5 µM
IC50 [2]: > 100 µM
IC50 [3]: 33.5 µM
